Experimental data: ChEMBL document CHEMBL4406853 (Eur J Med Chem, 2019)
Non-standard residues stand in square brackets, D forms with d. Residues, ends and D or L forms follow the SMILES beside them. ξ: configuration not given here. ξP = O=C(O)C1CCCN1

Key:
[1] = system: Mus musculus; assay: Antinociceptive activity in icv dosed mouse; type: functional
[2] = molecular target: T1, Mu-type opioid receptor (Cavia porcellus, UniProt P97266); assay: Agonist activity at mu opioid receptor in guinea pig brain membranes by [35S]-GTPgammaS binding assay; type: functional, cell membranes
[3] = molecular target: T1, Mu-type opioid receptor; assay: Inhibition of mu opioid receptor in guinea pig brain membranes; type: cell membranes
[4] = Inhibition of delta opioid receptor in guinea pig brain membranes; type: cell membranes, Cavia porcellus
[5] = molecular target: T2, Kappa-type opioid receptor (Cavia porcellus, UniProt P41144); assay: Agonist activity at kappa opioid receptor in guinea pig brain membranes by [35S]-GTPgammaS binding assay; type: functional, cell membranes
[6] = molecular target: T2, Kappa-type opioid receptor; assay: Inhibition of kappa opioid receptor in guinea pig brain membranes; type: cell membranes
[7] = Agonist activity at delta opioid receptor in guinea pig brain membranes by [35S]-GTPgammaS binding assay; type: cell membranes, Cavia porcellus
[8] = molecular target: T3, Delta-type opioid receptor (Homo sapiens, UniProt P41143); assay: Inhibition of delta opioid receptor (unknown origin) expressed in human […] cells assessed as increase in beta arrestin recruitment; type: functional, cell-based
[9] = molecular target: T4, Mu-type opioid receptor (Homo sapiens, UniProt P35372); assay: Inhibition of mu opioid receptor (unknown origin) expressed in human […] cells assessed as increase in beta arrestin recruitment; type: functional, cell-based
[10] = molecular target: T4, Mu-type opioid receptor; assay: Inhibition of mu opioid receptor (unknown origin) expressed in human […] cells by [35S]-GTPgammaS binding assay; type: functional, cell-based
[11] = molecular target: T3, Delta-type opioid receptor; assay: Inhibition of delta opioid receptor (unknown origin) expressed in human […] cells by [35S]-GTPgammaS binding assay relative to control; type: functional, cell-based
[12] = molecular target: T4, Mu-type opioid receptor; assay: Inhibition of mu opioid receptor (unknown origin) assessed as increase in beta arrestin recruitment relative to control; type: functional
[13] = molecular target: T4, Mu-type opioid receptor; assay: Inhibition of mu opioid receptor (unknown origin) expressed in human […] cells by [35S]-GTPgammaS binding assay relative to control; type: functional, cell-based
[14] = molecular target: T3, Delta-type opioid receptor; assay: Inhibition of delta opioid receptor (unknown origin) assessed as increase in beta arrestin recruitment relative to control; type: functional
[15] = molecular target: T3, Delta-type opioid receptor; assay: Inhibition of delta opioid receptor (unknown origin) expressed in human […] cells by [35S]-GTPgammaS binding assay; type: functional, cell-based
[16] = molecular target: T5, Kappa-type opioid receptor (Homo sapiens, UniProt P41145); assay: Inhibition of kappa-opioid receptor (unknown origin) by [35S]-GTPgammaS binding assay; type: functional
[17] = molecular target: T4, Mu-type opioid receptor; assay: Inhibition of mu-opioid receptor (unknown origin) by [35S]-GTPgammaS binding assay; type: functional
[18] = molecular target: T4, Mu-type opioid receptor; assay: Inhibition of mu opioid receptor (unknown origin) expressed in HEK293 cells assessed as inhibition of forskolin-stimulated intracellular cAMP accumulation preincubated for 30 mins followed by forskolin-stimulation and measured after 60 mins; type: functional, cell-based
[19] = molecular target: T4, Mu-type opioid receptor; assay: Inhibition of mu opioid receptor (unknown origin) expressed in HEK293 cells assessed as inhibition of forskolin-stimulated […] preincubated for 30 mins followed by forskolin-stimulation and measured after 60 mins; type: cell-based
[20] = molecular target: T5, Kappa-type opioid receptor; assay: Inhibition of kappa opioid receptor (unknown origin) relative to control
[21] = molecular target: T5, Kappa-type opioid receptor; assay: Binding affinity to kappa opioid receptor (unknown origin)
[22] = molecular target: T5, Kappa-type opioid receptor; assay: Inhibition of kappa opioid receptor (unknown origin)
[23] = molecular target: T4, Mu-type opioid receptor; assay: Displacement of [3H]DAMGO from mu opioid receptor (unknown origin) expressed in HEK293 cells after 1 hr by liquid scintillation counting; type: cell-based
[24] = molecular target: T5, Kappa-type opioid receptor; assay: Inhibition of kappa opioid receptor (unknown origin) by [35S]-GTPgammaS binding assay; type: functional
[25] = organism: Homo sapiens; assay: Selectivity ratio of IC50 for mu opioid receptor (unknown origin) to IC50 for delta opioid receptor (unknown origin) by MVD assay
[26] = molecular target: T3, Delta-type opioid receptor; assay: Inhibition of delta opioid receptor (unknown origin) by radioligand binding assay
[27] = molecular target: T3, Delta-type opioid receptor; assay: Inhibition of full length delta opioid receptor (unknown origin) assessed as inhibition of forskolin-stimulated intracellular cAMP accumulation; type: functional, cell-based
[28] = organism: Homo sapiens; assay: Selectivity ratio of IC50 for mu opioid receptor (unknown origin) to IC50 for delta opioid receptor (unknown origin) by radioligand binding assay
[29] = molecular target: T4, Mu-type opioid receptor; assay: Inhibition of mu opioid receptor (unknown origin)
[30] = molecular target: T3, Delta-type opioid receptor; assay: Inhibition of full length delta opioid receptor (unknown origin) assessed as increase in beta arrestin 2 recruitment
[31] = molecular target: T3, Delta-type opioid receptor; assay: Inhibition of full length delta opioid receptor (unknown origin) assessed as increase in beta arrestin 1 recruitment
[32] = molecular target: T3, Delta-type opioid receptor; assay: Inhibition of delta opioid receptor (unknown origin) by MVD assay
[33] = molecular target: T5, Kappa-type opioid receptor; assay: Inhibition of kappa opioid receptor (unknown origin) in presence of DPDPE by [35S]-GTPgammaS binding assay; type: functional
[34] = molecular target: T4, Mu-type opioid receptor; assay: Inhibition of mu opioid receptor (unknown origin) in presence of DAMGO by [35S]-GTPgammaS binding assay; type: functional
[35] = molecular target: T5, Kappa-type opioid receptor; assay: Inhibition of kappa opioid receptor (unknown origin) in presence of DAMGO by [35S]-GTPgammaS binding assay; type: functional
[36] = molecular target: T3, Delta-type opioid receptor; assay: Inhibition of delta opioid receptor (unknown origin) in presence of DAMGO by [35S]-GTPgammaS binding assay; type: functional
[37] = molecular target: T3, Delta-type opioid receptor; assay: Inhibition of delta opioid receptor (unknown origin) in presence of DPDPE by [35S]-GTPgammaS binding assay relative to control; type: functional
[38] = molecular target: T5, Kappa-type opioid receptor; assay: Inhibition of kappa opioid receptor (unknown origin) in presence of DPDPE by [35S]-GTPgammaS binding assay relative to control; type: functional
[39] = molecular target: T4, Mu-type opioid receptor; assay: Inhibition of mu opioid receptor (unknown origin) in presence of DPDPE by [35S]-GTPgammaS binding assay; type: functional
[40] = molecular target: T4, Mu-type opioid receptor; assay: Inhibition of mu opioid receptor (unknown origin) in presence of DPDPE by [35S]-GTPgammaS binding assay relative to control; type: functional
[41] = molecular target: T3, Delta-type opioid receptor; assay: Inhibition of delta opioid receptor (unknown origin) in presence of DAMGO by [35S]-GTPgammaS binding assay relative to control; type: functional
[42] = molecular target: T3, Delta-type opioid receptor; assay: Inhibition of delta opioid receptor (unknown origin) in presence of DPDPE by [35S]-GTPgammaS binding assay; type: functional
[43] = molecular target: T5, Kappa-type opioid receptor; assay: Inhibition of kappa opioid receptor (unknown origin) in presence of DAMGO by [35S]-GTPgammaS binding assay relative to control; type: functional

T3 sequence (P41143 whole entry): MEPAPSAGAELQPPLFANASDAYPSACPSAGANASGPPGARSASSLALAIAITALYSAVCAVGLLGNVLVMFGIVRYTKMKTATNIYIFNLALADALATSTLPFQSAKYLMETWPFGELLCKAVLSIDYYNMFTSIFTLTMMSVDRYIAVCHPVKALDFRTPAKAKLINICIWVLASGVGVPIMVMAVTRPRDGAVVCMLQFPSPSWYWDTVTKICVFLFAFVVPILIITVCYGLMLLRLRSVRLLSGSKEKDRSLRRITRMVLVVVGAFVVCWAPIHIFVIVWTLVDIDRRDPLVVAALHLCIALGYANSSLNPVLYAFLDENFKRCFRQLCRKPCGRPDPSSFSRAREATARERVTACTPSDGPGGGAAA
T5 sequence (P41145 whole entry): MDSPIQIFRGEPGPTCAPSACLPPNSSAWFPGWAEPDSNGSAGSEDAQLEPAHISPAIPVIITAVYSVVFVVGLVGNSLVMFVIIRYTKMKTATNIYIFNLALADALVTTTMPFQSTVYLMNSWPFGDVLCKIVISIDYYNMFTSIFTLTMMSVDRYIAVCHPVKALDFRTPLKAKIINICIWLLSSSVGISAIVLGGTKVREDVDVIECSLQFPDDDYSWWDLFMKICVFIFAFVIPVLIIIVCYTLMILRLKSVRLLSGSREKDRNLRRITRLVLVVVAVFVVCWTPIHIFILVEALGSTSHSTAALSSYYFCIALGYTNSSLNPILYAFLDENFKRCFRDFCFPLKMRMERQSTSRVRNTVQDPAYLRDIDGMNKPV
T4 sequence (P35372 whole entry): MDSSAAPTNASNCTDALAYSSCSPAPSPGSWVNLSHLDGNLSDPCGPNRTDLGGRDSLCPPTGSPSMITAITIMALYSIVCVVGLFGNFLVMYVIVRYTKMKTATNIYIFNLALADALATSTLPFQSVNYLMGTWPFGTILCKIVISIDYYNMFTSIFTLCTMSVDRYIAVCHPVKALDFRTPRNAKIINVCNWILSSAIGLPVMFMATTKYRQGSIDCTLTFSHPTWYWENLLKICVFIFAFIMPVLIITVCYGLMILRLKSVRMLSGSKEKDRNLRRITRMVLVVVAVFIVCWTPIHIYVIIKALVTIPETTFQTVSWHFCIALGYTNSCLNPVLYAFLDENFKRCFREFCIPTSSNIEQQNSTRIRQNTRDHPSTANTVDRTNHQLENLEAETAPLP
T1 sequence (P97266 whole entry): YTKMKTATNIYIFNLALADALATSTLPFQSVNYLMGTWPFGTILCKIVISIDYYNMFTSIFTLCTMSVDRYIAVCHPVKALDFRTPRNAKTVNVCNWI
T2 sequence (P41144 whole entry): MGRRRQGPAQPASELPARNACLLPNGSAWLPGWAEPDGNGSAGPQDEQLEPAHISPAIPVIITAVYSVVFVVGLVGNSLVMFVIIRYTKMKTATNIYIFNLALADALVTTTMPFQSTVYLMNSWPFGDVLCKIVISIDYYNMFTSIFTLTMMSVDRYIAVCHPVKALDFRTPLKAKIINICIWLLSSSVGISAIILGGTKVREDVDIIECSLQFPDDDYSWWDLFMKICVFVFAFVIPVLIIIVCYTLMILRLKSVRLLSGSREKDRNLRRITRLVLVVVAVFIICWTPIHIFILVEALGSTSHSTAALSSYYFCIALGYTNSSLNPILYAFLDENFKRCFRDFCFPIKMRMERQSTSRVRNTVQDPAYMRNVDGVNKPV

Oc1cccc(CCN(CCc2ccccc2)CC2CCC2)c1
ED50 [1]: 3.74 nmol

CC[C@@H]1CN2CC[C@@]3(O)C(=Nc4cccc(OC)c43)[C@@H]2C[C@@H]1/C(=C\OC)C(=O)OC
EC50 [2]: 0.053 µM | Ki [3]: 0.0072 µM | Ki [4]: 0.06 µM | EC50 [5]: 0.053 µM | Ki [6]: > 1 µM | EC50 [7]: 0.053 µM

CCOC(=O)C1(CCc2ccccc2)CCN(Cc2ccc(NC(C)=O)cc2)CC1
EC50 [8]: 8.3 µM | EC50 [9]: 8.3 µM | EC50 [10]: 0.054 µM | Emax [11]: 168% | Emax [12]: 1200% | Emax [13]: 168% | Emax [14]: 1200% | EC50 [15]: 0.054 µM

CCC1(C)CC(CCNCc2ccccc2O)(c2ccccc2OC)CCO1 (stereo not given)
EC50 [16]: 3.4 µM | EC50 [17]: 1.1 µM

CN(C)[C@H](CNC(=O)NCCc1cccs1)Cc1cccc2ccccc12
EC50 [18]: 0.0524 to 0.0911 µM | EC50 [19]: 0.0524 to 0.0911 µM

CN(C)[C@H](CNC(=O)NCCc1ccsc1)Cc1ccc2ccccc2c1
EC50 [18]: 0.0524 to 0.243 µM | EC50 [19]: 0.0524 to 0.243 µM

COC(=O)[C@@H]1C[C@H](OC(=O)Cl)C(=O)[C@H]2[C@@]1(C)CC[C@H]1C(=O)O[C@H](c3ccoc3)C[C@]21C
Emax [20]: 85% | Kd [21]: 0.0021 µM | EC50 [22]: 0.00019 µM

COC(=O)[C@@H]1C[C@H](OC(=O)CSC#N)C(=O)[C@H]2[C@@]1(C)CC[C@H]1C(=O)O[C@H](c3ccoc3)C[C@]21C [22-THIOCYANATOSALVINORIN A]
Kd [21]: 0.00059 µM

C=C(C(N)=O)C(NC(=O)[C@H](Cc1ccccc1)NC(=O)[C@@H](C)N(C)C(=O)C(N)Cc1c(C)cc(O)cc1C)c1ccccc1 (stereo not given in full)
EC50 [23]: 0.00177 to 0.00515 nM | Ki [23]: 0.0109 to 0.0511 nM

C=C(C(N)=O)C(NC(=O)[C@H](Cc1ccccc1)NC(=O)[C@@H](C)N(C)C(=O)[C@@H](N)Cc1ccc(O)cc1)c1ccccc1 (stereo not given in full)
EC50 [23]: 4 nM

Oc1cccc(CCN(CCc2ccccc2)CC2CC2)c1
EC50 [24]: 0.0367 µM | ED50 [1]: 6.02 nmol

CC(C)C[C@H](NC(=O)C1CCCN1C(=O)[C@@H](N)Cc1ccc(O)cc1)C(=O)N[C@@H](CC(=O)O)C(=O)N[C@@H](CC(C)C)C(=O)N[C@@H](Cc1ccccc1)C(=O)O (stereo not given in full) (H-Y[ξP]LDLF-OH)
Ratio IC50 [25]: 500 | IC50 [26]: 0.9 µM | IC50 [27]: 1.58 µM | Ratio IC50 [28]: 500 | IC50 [29]: > 2000 µM | EC50 [30]: 7.94 µM | EC50 [31]: 7.94 µM | IC50 [32]: 24.4 µM

CC[C@@H]1CN2CC[C@]3(Nc4cccc(OC)c4C3=O)[C@@H]2C[C@@H]1/C(=C\OC)C(=O)OC
EC50 [33]: 0.0017 µM | IC50 [33]: 0.132 µM | EC50 [34]: 0.0017 µM | IC50 [34]: 0.00661 µM | EC50 [35]: 0.0017 µM | IC50 [35]: 0.132 µM | EC50 [36]: 0.0017 µM | IC50 [36]: 0.0017 µM | Emax [37]: 82% | Emax [38]: 82% | EC50 [39]: 0.0017 µM | IC50 [39]: 0.000282 µM | Emax [40]: 82% | Emax [41]: 82% | EC50 [42]: 0.0017 µM | IC50 [42]: 0.00126 µM | Emax [43]: 82%
